Data as given in the supplement of paper PMC10307832.

Tests used:
Experiment in all cases: relative viability (nuclei count vs DMSO), 5 days (fraction); higher = more cells survive
Idelalisib + Foretinib = compound: CC[C@H](Nc1ncnc2[nH]cnc12)c1nc2cccc(F)c2c(=O)n1-c1ccccc1 [Idelalisib] + COc1cc2c(Oc3ccc(NC(=O)C4(C(=O)Nc5ccc(F)cc5)CC4)cc3F)ccnc2cc1OCCCN1CCOCC1 [Foretinib] (partner 0.25 µM)
Method in brief: (§1)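 Medians of duplicate plates are given as relative viability. That measure is the nuclei count in treated wells divided by the count in vehicle wells. Counts were taken on 4× images of lung cancer cell lines in 1536-well plates, 5 days after pin-tool dosing the day after seeding with one drug alone or a fixed anchor-drug dose plus five library-drug doses (not always all listed) in √10 steps.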

Idelalisib + Pictilisib = compound: CC[C@H](Nc1ncnc2[nH]cnc12)c1nc2cccc(F)c2c(=O)n1-c1ccccc1 [Idelalisib] + CS(=O)(=O)N1CCN(Cc2cc3nc(-c4cccc5[nH]ncc45)nc(N4CCOCC4)c3s2)CC1 [Pictilisib] (partner 1 µM)
Method in brief: as §1

Pemetrexed + Alpelisib = compound: Nc1nc2[nH]cc(CCc3ccc(C(=O)N[C@@H](CCC(=O)O)C(=O)O)cc3)c2c(=O)[nH]1 [Pemetrexed] + Cc1nc(NC(=O)N2CCC[C@H]2C(N)=O)sc1-c1ccnc(C(C)(C)C(F)(F)F)c1 [Alpelisib] (partner 2 µM)
Method in brief: as §1

Pemetrexed + Dasatinib = compound: Nc1nc2[nH]cc(CCc3ccc(C(=O)N[C@@H](CCC(=O)O)C(=O)O)cc3)c2c(=O)[nH]1 [Pemetrexed] + Cc1nc(Nc2ncc(C(=O)Nc3c(C)cccc3Cl)s2)cc(N2CCN(CCO)CC2)n1 [Dasatinib] (partner 0.075 µM)
Method in brief: as §1

| Cell Line | relative viability (Idelalisib + Foretinib; first compound 0.04 µM) | relative viability (Idelalisib + Foretinib; first compound 0.1265 µM) | relative viability (Idelalisib + Foretinib; first compound 0.4 µM) | relative viability (Idelalisib + Foretinib; first compound 1.265 µM) | relative viability (Idelalisib + Foretinib; first compound 4 µM) | relative viability (Idelalisib + Pictilisib; first compound 0.04 µM) | relative viability (Idelalisib + Pictilisib; first compound 0.1265 µM) | relative viability (Idelalisib + Pictilisib; first compound 0.4 µM) | relative viability (Idelalisib + Pictilisib; first compound 1.265 µM) | relative viability (Idelalisib + Pictilisib; first compound 4 µM) | relative viability (Pemetrexed + Alpelisib; first compound 0.002 µM) | relative viability (Pemetrexed + Alpelisib; first compound 0.006325 µM) | relative viability (Pemetrexed + Alpelisib; first compound 0.02 µM) | relative viability (Pemetrexed + Alpelisib; first compound 0.06325 µM) | relative viability (Pemetrexed + Alpelisib; first compound 0.2 µM) | relative viability (Pemetrexed + Dasatinib; first compound 0.002 µM) | relative viability (Pemetrexed + Dasatinib; first compound 0.006325 µM) | relative viability (Pemetrexed + Dasatinib; first compound 0.02 µM) | relative viability (Pemetrexed + Dasatinib; first compound 0.06325 µM) | relative viability (Pemetrexed + Dasatinib; first compound 0.2 µM) |
| --- | --- | --- | --- | --- | --- | --- | --- | --- | --- | --- | --- | --- | --- | --- | --- | --- | --- | --- | --- | --- |
| NCI-H1915 | 1.15 | 1.1 | 1.09 | 1.19 | 1.09 | 1.22 | 0.952 | 0.881 | 1.08 | 0.9 | 0.995 | 1.04 | 1.03 | 1.09 | 1.1 | 0.236 | 0.313 | 0.313 | 0.306 | 0.319 |
| NCI-H3122 | 0.963 | 0.939 | 1 | 0.982 | 0.836 | 0.595 | 0.594 | 0.551 | 0.669 | 0.557 | 0.94 | 0.833 | 0.734 | 0.772 | 0.521 | 0.707 | 0.815 | 0.659 | 0.674 | 0.463 |
| NCI-H1993 | 0.967 | 0.843 | 0.649 | 0.837 | 0.737 | 0.804 | 0.8 | 0.807 | 0.896 | 0.803 | 0.731 | 0.645 | 0.661 | 0.754 | 0.785 | 0.325 | 0.606 | 0.546 | 0.496 | 0.358 |
| NCI-H2405 | 1.11 | 1.06 | 0.952 | 1.01 | 0.956 | 0.492 | 0.471 | 0.387 | 0.401 | 0.447 | 0.896 | 0.714 | 0.868 | 0.712 | 0.736 | 0.182 | 0.228 | 0.228 | 0.205 | 0.209 |
| NCI-H661 | 1.12 | 1.06 | 1.02 | 1.01 | 1.02 | 0.426 | 0.37 | 0.446 | 0.468 | 0.456 | 0.732 | 0.563 | 0.621 | 0.636 | 0.794 | 0.882 | 0.84 | 0.958 | 0.945 | 0.827 |
